Results reported in patent US4398029A, “Quinoline carboxylic acid derivatives and process for the preparation” (Kyorin Seiyaku Kabushiki Kaisha, priority 1981, dated 1983).
≈ marks a conversion by molar mass, not a printed value.

Legend:
gram-negative bacteria = settings: prior art statement; cited from earlier work
gram-positive bacteria = settings: prior art statement; cited from earlier work
Pseudomonas aeruginosa = settings: prior art statement; cited from earlier work
[1] = test system: Acinetobacter anitratus IID 876; test: Antibacterial activity (MIC), standard agar dilution streak method; format: cell-based; settings: Acinetobacter calcoaceticus, IID876, read-out: Minimum inhibitory concentration
Protocol: (§1) The antibacterial activities of the compounds of the present invention were assayed by the standard agar dilution streak method against Gram-positive and Gram-negative bacteria [Chemotherapy, 22, 1126 (1974)].

[2] = test system: Alcaligenes faecalis 0104002; test: as above; format: cell-based; settings: Alcaligenes faecalis 0104002; read-out: Minimum inhibitory concentration
Protocol: as §1

[3] = test system: Bacillus subtilis PCI 219; test: as above; format: cell-based; settings: Bacillus subtilis, PCI219; read-out: Minimum inhibitory concentration
Protocol: as §1

[4] = test system: Citrobacter freundii IID 976; test: as above; format: cell-based; settings: IID976; Citrobacter freundii IID 976; read-out: Minimum inhibitory concentration
Protocol: as §1

[5] = test system: Enterobacter cloacae IID 977; test: as above; format: cell-based; settings: IID977; Enterobacter cloacae IID 977; read-out: Minimum inhibitory concentration
Protocol: as §1

[6] = test system: Escherichia coli NIHJ JC-2; test: as above; format: cell-based; settings: NIHJJC2; Escherichia coli NIHJ JC-2; read-out: Minimum inhibitory concentration
Protocol: as §1

[7] = test system: Klebsiella pneumoniae IFO 3512; test: as above; format: cell-based; settings: IFO3512; Klebsiella pneumoniae IFO 3512; read-out: Minimum inhibitory concentration
Protocol: as §1

P. mirabilis IID 994 = test: as above; format: cell-based; settings: Proteus mirabilis, IID994; read-out: Minimum inhibitory concentration
Protocol: as §1

P. morganii IID 602 = test: as above; format: cell-based; settings: Morganella morganii, IID602; read-out: Minimum inhibitory concentration
Protocol: as §1

Proteus vulgaris 3167 = test: as above; format: cell-based; settings: Proteus vulgaris 3167; read-out: Minimum inhibitory concentration
Protocol: as §1

[8] = test system: Pseudomonas aeruginosa V-1; test: as above; format: cell-based; settings: Pseudomonas aeruginosa, V1; read-out: Minimum inhibitory concentration
Protocol: as §1

S. epidermidis IID 866 = test: as above; format: cell-based; settings: Staphylococcus epidermidis, IID866, read-out: Minimum inhibitory concentration
Protocol: as §1

[9] = test system: Salmonella enteritidis IID 604; test: as above; format: cell-based; settings: Salmonella enterica; read-out: Minimum inhibitory concentration
Protocol: as §1

[10] = test system: Serratia marcescens IID 618; test: as above; format: cell-based; settings: IID618; Serratia marcescens IID 618; read-out: Minimum inhibitory concentration
Protocol: as §1

[11] = test system: Staphylococcus aureus 209 p; test: as above; format: cell-based; settings: Staphylococcus aureus, 209P; read-out: Minimum inhibitory concentration
Protocol: as §1

[12] = test system: Yersinia enterocolitica IID 981; test: as above; format: cell-based; settings: IID981; Yersinia enterocolitica IID 981; read-out: Minimum inhibitory concentration
Protocol: as §1

S. aureus Terajima = test: as above; format: cell-based, Staphylococcus aureus; settings: Staphylococcus aureus; read-out: Minimum inhibitory concentration
Protocol: as §1

E. coli ATCC 10536 = test: as above; format: cell-based, Escherichia coli; settings: Escherichia coli, ATCC10536, read-out: Minimum inhibitory concentration
Protocol: as §1

Shigella sonnei IID 969 = test: microbe, parasite or virus in culture; format: cell-based; settings: IID969; Shigella sonnei IID 969; read-out: Minimum inhibitory concentration
Protocol: as §1

P. aeruginosa IFO 12689 = test: Antibacterial activity (MIC), standard agar dilution streak method; format: cell-based, Pseudomonas aeruginosa; settings: Pseudomonas aeruginosa, IFO12689, P. aeruginosa IFO 12689; read-out: Minimum inhibitory concentration
Protocol: as §1

Structure (SMILES): CCn1cc(C(=O)O)c(=O)c2cnc(N3CCCC3)nc21 [piromidic acid]
- effectiveness in the therapy of infections due to gram-negative bacteria (gram-negative bacteria): highly effective
- activities against most gram-positive bacteria (gram-positive bacteria): weak activities
- activities against Pseudomonas aeruginosa (Pseudomonas aeruginosa): weak activities

Structure (SMILES): CCN1CCN(c2c(F)cc3c(=O)c(C(=O)O)cn(CC)c3c2F)CC1 [Example 7, 1-Ethyl-7-(4-ethyl-1-piperazinyl)-6,8-difluoro-1,4-dihydro-4-oxoquinoline-3-carboxylic acid]
- MIC [1]: 0.39 mg/L (≈ 1.07 µM)
- MIC [2]: 1.56 mg/L (≈ 4.27 µM)
- MIC [3]: 0.1 mg/L (≈ 0.274 µM)
- MIC [4]: 0.2 mg/L (≈ 0.547 µM)
- MIC [5]: 0.39 mg/L (≈ 1.07 µM)
- MIC [6]: ≤ 0.05 mg/L
- MIC [7]: ≤ 0.05 mg/L
- MIC (P. mirabilis IID 994): 0.2 mg/L (≈ 0.547 µM)
- MIC (P. morganii IID 602): 0.39 mg/L (≈ 1.07 µM)
- MIC (Proteus vulgaris 3167): ≤ 0.05 mg/L
- MIC [8]: 6.25 mg/L (≈ 17.1 µM)
- MIC (S. epidermidis IID 866): 0.78 mg/L (≈ 2.13 µM)
- MIC [9]: 0.39 mg/L (≈ 1.07 µM)
- MIC [10]: 0.39 mg/L (≈ 1.07 µM)
- MIC [11]: 0.78 mg/L (≈ 2.13 µM)
- MIC [12]: 0.2 mg/L (≈ 0.547 µM)
- MIC (S. aureus Terajima): 0.78 mg/L (≈ 2.13 µM)
- MIC (E. coli ATCC 10536): 0.1 mg/L (≈ 0.274 µM)
- MIC (Shigella sonnei IID 969): 0.1 mg/L (≈ 0.274 µM)
- MIC (P. aeruginosa IFO 12689): 6.25 mg/L (≈ 17.1 µM)

Structure (SMILES): CCn1cc(C(=O)O)c(=O)c2cnc(N3CCNCC3)nc21 [pipemidic acid]
- effectiveness in the therapy of infections due to gram-negative bacteria (gram-negative bacteria): highly effective
- activities against most gram-positive bacteria (gram-positive bacteria): weak activities
- activities against Pseudomonas aeruginosa (Pseudomonas aeruginosa): weak activities

Structure (SMILES): CCn1cc(C(=O)O)c(=O)c2ccc(C)nc21 [nalidixic acid]
- effectiveness in the therapy of infections due to gram-negative bacteria (gram-negative bacteria): highly effective
- activities against most gram-positive bacteria (gram-positive bacteria): weak activities
- activities against Pseudomonas aeruginosa (Pseudomonas aeruginosa): weak activities
